Patent publication US6869933B2, “HIV-specific CTL inducing peptides and medicaments for preventing or treating AIDS comprising the peptides” (Ajinomoto Co., Inc., priority 1999, dated 2005)
Marks after values point to notes of the source that are not given here.

Legend:
[1] = tested on: HLA-A*1101 positive Tm EBV transformed cells pulsed with the peptide; experiment: Induction of specific CTL by a single stimulation with the peptides in PBL from HIV-seropositive patients carrying HLA-A11 (51Cr release CTL assay); details: for patients in whom peptide-specific CTL activity was induced: six HIV-1 seropositive patients carrying HLA-A*1101
[2] = tested on: HLA-A*1101 positive Tm EBV transformed cells pulsed with the peptide; experiment: Induction of specific CTL after a single stimulation with the peptides in PBMC from HIV-subtype E-seropositive patients carrying HLA-A11; details: for patients from whom the specific CTL could be induced: HIV-1 subtype E infected patients carrying HLA-A11
[3] = tested on: HLA-A*1101 positive Tm EBV transformed cells pulsed with the peptide; experiment: Induction of specific CTL after a single stimulation with the peptides in PBMC from HIV-subtype B-seropositive patients carrying HLA-A11
[4] = tested on: C1R-A*1101 cells infected with vaccinia virus expressing HIV-1 Pol protein or Env protein; assay type: cell-based, human
[5] = patient five, effector:target 5:1, peptide 1 μM
[6] = patient five, effector:target 40:1, peptide 1 μM
[7] = patient four, effector:target 5:1, peptide 1 μM
[8] = patient four, effector:target 40:1, peptide 1 μM
[9] = patient one, effector:target 5:1, peptide 1 μM
[10] = patient one, effector:target 40:1, peptide 1 μM
[11] = patient six, effector:target 5:1, peptide 1 μM
[12] = patient six, effector:target 40:1, peptide 1 μM
[13] = patient three, effector:target 5:1, peptide 1 μM
[14] = patient three, effector:target 40:1, peptide 1 μM
[15] = patient two, effector:target 5:1, peptide 1 μM
[16] = patient two, effector:target 40:1, peptide 1 μM
[17] = patient TT-005, effector:target 40:1, peptide 1 μM
[18] = patient TT-007, effector:target 40:1, peptide 1 μM
[19] = patient TT-008, effector:target 40:1, peptide 1 μM
[20] = patient TT-009, effector:target 40:1, peptide 1 μM
[21] = patient TU-002, effector:target 40:1, peptide 1 μM
[22] = patient TU-003, effector:target 40:1, peptide 1 μM
[23] = patient TU-007, effector:target 40:1, peptide 1 μM
[24] = patient KI-005, effector:target 40:1, peptide 1 μM
[25] = patient KI-015, effector:target 40:1, peptide 1 μM
[26] = patient KI-030, effector:target 40:1, peptide 1 μM
[27] = patient KI-035, effector:target 40:1, peptide 1 μM
[28] = patient KI-036, effector:target 40:1, peptide 1 μM

Sequence: DPNPQEVVL (Human immunodeficiency virus type 1) [Env77-85]
- relative cell lysis (%) [1, 5]: −3.6%
- relative cell lysis (%) [1, 6]: 1.7%
- relative cell lysis (%) [1, 7]: 1.5%
- relative cell lysis (%) [1, 8]: 2.5%
- relative cell lysis (%) [1, 9]: −0.1%
- relative cell lysis (%) [1, 10]: 0.2%
- relative cell lysis (%) [1, 11]: 0.0%
- relative cell lysis (%) [1, 12]: 0.5%
- relative cell lysis (%) [1, 13]: −2.8%
- relative cell lysis (%) [1, 14]: −0.3%
- relative cell lysis (%) [1, 15]: −0.4%
- relative cell lysis (%) [1, 16]: −1.1%

Sequence: AFDLSFFLK (Human immunodeficiency virus type 1) [Nef 84-9-2F6F]
- patients from whom the specific CTL could be induced [2]: six of seven
- relative cell lysis (%) [2, 17]: −1.3%
- relative cell lysis (%) [2, 18]: 24.6%
- relative cell lysis (%) [2, 19]: 75.5%
- relative cell lysis (%) [2, 20]: 76.5%
- relative cell lysis (%) [2, 21]: 15.4%
- relative cell lysis (%) [2, 22]: 41.2%
- relative cell lysis (%) [2, 23]: 64.2%

Sequence: QIIEELIKK (Human immunodeficiency virus type 1) [Pol 675-9-5E]
- patients from whom the specific CTL could be induced [2]: five of seven
- relative cell lysis (%) [2, 17]: 3.4* %
- relative cell lysis (%) [2, 18]: 55.1%
- relative cell lysis (%) [2, 19]: 23.4%
- relative cell lysis (%) [2, 20]: 63.8%
- relative cell lysis (%) [2, 21]: 3.4%
- relative cell lysis (%) [2, 22]: 0.2%
- relative cell lysis (%) [2, 23]: 5.7%

Sequence: ALDLSHFLK (Human immunodeficiency virus type 1) [Nef 84-9-2L]
- patients from whom the specific CTL could be induced ([3]; HIV-1 subtype B infected patients carrying HLA-A11): three of five
- relative cell lysis (%) [3, 24]: 68.3%
- relative cell lysis (%) [3, 25]: 6.3%
- relative cell lysis (%) [3, 26]: 5.5%
- relative cell lysis (%) [3, 27]: 16.4%
- relative cell lysis (%) [3, 28]: 50.4%

Sequence: QIIEKLIEK (Human immunodeficiency virus type 1) [Pol 675-9-5K8E]
- patients from whom the specific CTL could be induced [2]: two of six
- relative cell lysis (%) [2, 17]: −4.1%
- relative cell lysis (%) [2, 18]: 21.7%
- relative cell lysis (%) [2, 19]: 10.3%
- relative cell lysis (%) [2, 20]: 4.5%
- relative cell lysis (%) [2, 21]: 5.6%
- relative cell lysis (%) [2, 22]: −5.6%

Sequence: QIYAGIKVK [SF2-Pol424-9]
- killing of vaccinia-infected target cells by peptide-specific CTL clones (endogenous processing and presentation by HLA-A*1101) [4]: contain HLA-A*1101 restricted HIV-1 specific CTL epitopes
- relative cell lysis (%) [1, 5]: −1.7%
- relative cell lysis (%) [1, 6]: −3.7%
- relative cell lysis (%) [1, 7]: 11.7%
- relative cell lysis (%) [1, 8]: 27.4** %
- relative cell lysis (%) [1, 9]: 3.1%
- relative cell lysis (%) [1, 10]: −0.2%
- relative cell lysis (%) [1, 11]: 2.0%
- relative cell lysis (%) [1, 12]: 2.3%
- relative cell lysis (%) [1, 13]: −3.3%
- relative cell lysis (%) [1, 14]: 7.0%
- relative cell lysis (%) [1, 15]: −0.2%
- relative cell lysis (%) [1, 16]: 4.9%
- patients in whom peptide-specific CTL activity was induced [1]: one of six patients

Sequence: SVITQACPK [SF2-Env202-9]
- killing of vaccinia-infected target cells by peptide-specific CTL clones (endogenous processing and presentation by HLA-A*1101) [4]: contain HLA-A*1101 restricted HIV-1 specific CTL epitopes

Sequence: AIFQSSMTK (Human immunodeficiency virus type 1) [Pol313-321]
- relative cell lysis (%) [1, 5]: −3.7%
- relative cell lysis (%) [1, 6]: 2.8%
- relative cell lysis (%) [1, 7]: 26.8%
- relative cell lysis (%) [1, 8]: 53.5%
- relative cell lysis (%) [1, 9]: 3.7%
- relative cell lysis (%) [1, 10]: 13.6%
- relative cell lysis (%) [1, 11]: 1.1%
- relative cell lysis (%) [1, 12]: 0.7%
- relative cell lysis (%) [1, 13]: 2.3%
- relative cell lysis (%) [1, 14]: −2.4%
- relative cell lysis (%) [1, 15]: 8.2%
- relative cell lysis (%) [1, 16]: 31.1%
- patients in whom peptide-specific CTL activity was induced [1]: three patients

Sequence: IYQEPFKNLK [Pol496-505]
- relative cell lysis (%) [1, 5]: −2.8%
- relative cell lysis (%) [1, 6]: 4.9%
- relative cell lysis (%) [1, 7]: 4.6%
- relative cell lysis (%) [1, 8]: 8.00%
- relative cell lysis (%) [1, 9]: −2.9%
- relative cell lysis (%) [1, 10]: −0.6%
- relative cell lysis (%) [1, 11]: 3.0%
- relative cell lysis (%) [1, 12]: 12.9%
- relative cell lysis (%) [1, 13]: 3.2%
- relative cell lysis (%) [1, 14]: 5.1%
- relative cell lysis (%) [1, 15]: 2.6%
- relative cell lysis (%) [1, 16]: 2.5%
- patients in whom peptide-specific CTL activity was induced [1]: one of six patients

Sequence: AVDLSHFLK (Human immunodeficiency virus type 1) [Nef 84-9, reference compound]
- relative cell lysis (%) [3, 24]: 25.3* %
- relative cell lysis (%) [3, 25]: 68.6%
- relative cell lysis (%) [3, 26]: 6.6%
- relative cell lysis (%) [3, 27]: 5.8%
- relative cell lysis (%) [3, 28]: 16.5%
